Consider 19 molecules from patent publication US20230312583A1, “1H-IMIDAZO [4,5-H] QUINAZOLINE COMPOUND AS NOVEL SELECTIVE FLT3 INHIBITORS” (SHENGKE PHARMACEUTICALS (JIANGSU) LTD., priority 2020, published 2023).

What all share (assay type): biochemical
What all share (conditions): 10 μM ATP

The target of one assay is CDK4/cyclin D1 (Homo sapiens (Human), UniProt P11802). Description: Radiometric 33P-ATP kinase inhibition assay, CDK4/cyclin. As for the experimental part: (§1) Reactions were carried out in the presence of 10 μM ATP.
(§2) Procedures: • 1. Compounds were prepared in freshly prepared reaction buffers containing 20 mM HEPES (pH 7.5), 10 mM MgCl2, 1 mM EGTA, 0.01% Brij35, 0.02 mg/ml, BSA, 0.1 mM Na3VO4, 2 mM DTT, and 1% DMSO. • 2. […] Kinase such as 10 ng of recombinant CDK4/cyclin D1 (Life Technologies PV4204) diluted in a kinase buffer (20 mM Tris pH7.5, 10 mM MgCl2, 0.01% NP-40, 2 mM DTT), and incubated at room temperature for 30 minutes together with indicated concentration of inhibitors. • 4. Compounds in DMSO were added into the kinase reaction mixture utilizing acoustic technology (Echo550). • 5. 33P-ATP (specific activity 0.01 μCi/μl final) was added into the reaction mixture to initiate the reaction. • 6. The reaction mixture was incubated for 120 minutes at room temperature. • 7. […] Filters were extensively washed with 0.75% phosphoric acid. • 9. The radioactive phosphorylated substrate remaining on the filter paper was measured.
(§3) Kinase activity data were expressed as the percent remaining kinase activity in test samples compared to vehicle (dimethyl sulfoxide) reactions. IC50 values and curve fits were obtained using Prism4 Software (GraphPad).

A further assay concerns the target C-Klt (Homo sapiens (Human), UniProt P10721). The assay is described as follows: Radiometric 33P-ATP kinase inhibition assay, C-Klt. As for the experimental part:
as §1, §2, §3

The target of a further assay is CDK2/cyclin E (Homo sapiens (Human), UniProt P24941). Description: Radiometric 33P-ATP kinase inhibition assay, CDK2/cyclin E. As for the experimental part: as §1, §2, §3
Another assay addresses CDK6/cyclin D1 (Homo sapiens (Human), UniProt Q00534). The assay is described as follows: Radiometric 33P-ATP kinase inhibition assay, CDK6/cyclin D1. As for the experimental part: as §1, §2, §3
The next assay deals with CDK1/cyclin B (Homo sapiens (Human), UniProt P06493). The assay is described as follows: Radiometric 33P-ATP kinase inhibition assay, CDK1/cyclin B. As for the experimental part:
as §1, §2, §3

Where only a bound is given, the exact number is not on record here.

What is called IC50 is the concentration that inhibits the measured activity by half. Lower therefore signals higher potency.

Chain of C-Klt (P10721 26-976): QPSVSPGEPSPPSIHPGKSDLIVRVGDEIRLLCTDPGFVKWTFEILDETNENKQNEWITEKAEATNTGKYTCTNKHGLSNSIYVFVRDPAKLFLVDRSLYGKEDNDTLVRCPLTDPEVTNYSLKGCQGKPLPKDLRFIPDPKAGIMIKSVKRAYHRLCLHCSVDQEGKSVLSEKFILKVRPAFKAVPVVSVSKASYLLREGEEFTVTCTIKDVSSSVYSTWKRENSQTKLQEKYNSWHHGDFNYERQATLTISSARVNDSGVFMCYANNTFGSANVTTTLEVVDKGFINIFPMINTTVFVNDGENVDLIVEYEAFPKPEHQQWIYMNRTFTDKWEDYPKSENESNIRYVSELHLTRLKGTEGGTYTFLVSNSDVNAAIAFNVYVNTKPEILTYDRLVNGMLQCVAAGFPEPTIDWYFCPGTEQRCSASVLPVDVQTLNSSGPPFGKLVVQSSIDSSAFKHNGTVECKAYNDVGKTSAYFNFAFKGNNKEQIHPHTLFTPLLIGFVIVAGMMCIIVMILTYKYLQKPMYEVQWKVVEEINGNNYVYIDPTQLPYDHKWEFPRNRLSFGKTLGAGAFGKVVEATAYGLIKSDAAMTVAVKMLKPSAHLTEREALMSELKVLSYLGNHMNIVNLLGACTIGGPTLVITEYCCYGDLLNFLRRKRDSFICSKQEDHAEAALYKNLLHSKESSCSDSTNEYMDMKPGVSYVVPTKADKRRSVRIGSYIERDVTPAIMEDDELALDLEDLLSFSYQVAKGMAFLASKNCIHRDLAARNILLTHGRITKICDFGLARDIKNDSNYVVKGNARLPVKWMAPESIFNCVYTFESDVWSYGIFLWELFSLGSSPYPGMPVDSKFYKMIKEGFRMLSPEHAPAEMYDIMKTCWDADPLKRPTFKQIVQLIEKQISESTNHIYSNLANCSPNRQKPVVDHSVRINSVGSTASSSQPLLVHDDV
Chain of CDK4/cyclin D1 (P11802 whole entry): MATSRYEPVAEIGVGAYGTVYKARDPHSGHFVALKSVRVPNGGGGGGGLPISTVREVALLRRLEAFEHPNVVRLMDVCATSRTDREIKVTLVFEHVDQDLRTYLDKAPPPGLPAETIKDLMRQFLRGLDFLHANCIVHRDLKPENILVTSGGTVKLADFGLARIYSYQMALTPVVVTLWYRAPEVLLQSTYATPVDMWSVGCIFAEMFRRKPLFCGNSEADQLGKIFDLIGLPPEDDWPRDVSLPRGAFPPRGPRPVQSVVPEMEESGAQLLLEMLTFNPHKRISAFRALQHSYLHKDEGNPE
Chain of CDK4/cyclin D1 (P24385 whole entry partner): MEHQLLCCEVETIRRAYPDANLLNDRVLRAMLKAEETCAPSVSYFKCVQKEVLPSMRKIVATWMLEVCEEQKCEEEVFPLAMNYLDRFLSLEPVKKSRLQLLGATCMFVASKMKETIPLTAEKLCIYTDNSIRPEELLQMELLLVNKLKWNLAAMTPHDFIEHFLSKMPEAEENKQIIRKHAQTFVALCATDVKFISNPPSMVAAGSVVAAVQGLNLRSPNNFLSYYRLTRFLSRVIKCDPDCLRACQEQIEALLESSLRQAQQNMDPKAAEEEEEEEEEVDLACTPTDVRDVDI
Chain of CDK1/cyclin B (P06493 whole entry, species assumed): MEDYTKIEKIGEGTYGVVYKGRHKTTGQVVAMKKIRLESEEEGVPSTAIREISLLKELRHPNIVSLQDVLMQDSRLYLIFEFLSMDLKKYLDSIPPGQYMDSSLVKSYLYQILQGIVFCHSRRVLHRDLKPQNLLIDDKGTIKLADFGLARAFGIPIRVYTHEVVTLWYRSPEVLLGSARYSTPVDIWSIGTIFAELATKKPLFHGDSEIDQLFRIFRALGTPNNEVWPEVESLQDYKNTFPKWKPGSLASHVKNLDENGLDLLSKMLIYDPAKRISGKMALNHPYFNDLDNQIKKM
Chain of CDK1/cyclin B (P14635 whole entry partner, species assumed): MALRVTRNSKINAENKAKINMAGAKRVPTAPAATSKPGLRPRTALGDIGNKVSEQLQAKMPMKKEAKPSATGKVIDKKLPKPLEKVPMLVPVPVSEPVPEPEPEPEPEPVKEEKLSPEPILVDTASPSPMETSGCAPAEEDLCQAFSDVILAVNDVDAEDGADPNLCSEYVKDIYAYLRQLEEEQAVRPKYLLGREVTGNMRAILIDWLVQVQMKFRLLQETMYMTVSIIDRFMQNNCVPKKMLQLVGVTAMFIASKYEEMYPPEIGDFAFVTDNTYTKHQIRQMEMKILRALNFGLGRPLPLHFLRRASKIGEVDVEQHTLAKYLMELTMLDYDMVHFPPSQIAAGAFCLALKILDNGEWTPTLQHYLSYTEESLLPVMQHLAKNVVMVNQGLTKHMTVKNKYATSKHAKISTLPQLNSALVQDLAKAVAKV
Chain of CDK6/cyclin D1 (Q00534 whole entry, species assumed): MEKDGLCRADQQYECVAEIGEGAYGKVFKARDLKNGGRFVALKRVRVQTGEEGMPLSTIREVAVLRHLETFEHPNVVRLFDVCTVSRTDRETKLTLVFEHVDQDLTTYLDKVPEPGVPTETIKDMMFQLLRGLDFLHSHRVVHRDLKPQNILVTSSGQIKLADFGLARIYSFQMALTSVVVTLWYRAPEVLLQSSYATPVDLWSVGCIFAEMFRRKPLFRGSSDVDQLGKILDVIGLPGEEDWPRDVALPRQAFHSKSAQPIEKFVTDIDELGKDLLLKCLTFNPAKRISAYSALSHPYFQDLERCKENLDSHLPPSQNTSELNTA
Chain of CDK6/cyclin D1 (P24385 whole entry partner, species assumed): as the sequence (P24385 whole entry partner) above

For `COc1cc(Nc2ncc3ccc4ncn(C(C)C)c4c3n2)ncc1N1CCN(C)CC1` [Compound I-1], the values for the IC50 on CDK4/cyclin D1, against C-Klt and against CDK2/cyclin E were 61 nM, 32.1 nM and 189 nM, respectively.

For the molecule `CCN1CCN(c2cnc(Nc3ncc4ccc5ncn(C(C)C)c5c4n3)cc2OC)CC1` [Compound I-2, N-(5-(4-ethylpiperazin-1-yl)-4-methoxypyridin-2-yl)-1-isopropyl-1H-imidazo[4,5-h]quinazolin-8-amine], the figures for the concentration for half-maximal inhibition (IC50) on CDK4/cyclin D1 and against CDK2/cyclin E were 66.8 nM and 162 nM, respectively.

`COc1cc(Nc2ncc3ccc4ncn(C(C)C)c4c3n2)ncc1N1CC2(COC2)C1` [Compound I-3]: the IC50 was 186 nM against CDK4/cyclin D1, 60.6 nM at C-Klt and 46.9 nM against CDK2/cyclin E.

Turning to `COc1cc(Nc2ncc3ccc4ncn(C(C)C)c4c3n2)ncc1N1CC2(CNC2)C1` [Compound I-4], the IC50 amounted to 52.9 nM against CDK4/cyclin D1, 16.6 nM on C-Klt and 69.5 nM at CDK2/cyclin E.

As for `COc1cc(Nc2ncc3ccc4ncn(C(C)C)c4c3n2)ncc1N1CCNC(C)(C)C1` [Compound I-5], the 50% inhibitory concentration (IC50) is 95 nM at CDK4/cyclin D1, 25.6 nM on C-Klt and 483 nM against CDK2/cyclin E.

On to `CNC1CN(c2cnc(Nc3ncc4ccc5ncn(C(C)C)c5c4n3)cc2OC)C1` [Compound I-6], for which the IC50 on CDK4/cyclin D1 is 245 nM; against C-Klt it was 94.7 nM; against CDK2/cyclin E, over 500 nM.

Turning to `CCOc1cc(Nc2ncc3ccc4ncn(C(C)C)c4c3n2)ncc1N1CCN(C)CC1` [Compound I-7], the half-maximal inhibitory concentration (IC50) is 99.1 nM against CDK4/cyclin D1, 31.5 nM at C-Klt and over 500 nM at CDK2/cyclin E.

As to `CCOc1cc(Nc2ncc3ccc4ncn(C(C)C)c4c3n2)ncc1N1CCOCC1` [Compound I-8], the results for the half-inhibitory concentration (IC50) against CDK4/cyclin D1, against C-Klt and on CDK2/cyclin E were over 500 nM, 89.1 nM and over 500 nM, respectively.

For the molecule `CC(C)n1cnc2ccc3cnc(Nc4cc(OCCF)c(N5CC6CC(C5)N6)cn4)nc3c21` [Compound I-9], the IC50 at CDK6/cyclin D1 worked out at 22.5 nM; against CDK4/cyclin D1, 39.5 nM; against C-Klt it was 15 nM; at CDK2/cyclin E, 91.1 nM.

Consider `CC(C)n1cnc2ccc3cnc(Nc4cc(OCC5CC5)c(N5CCNCC5)cn4)nc3c21` [Compound I-10], for which the IC50 was 292 nM at CDK4/cyclin D1, 451 nM against CDK1/cyclin B, 111 nM on C-Klt and over 500 nM against CDK2/cyclin E.

As to `COc1cc(Nc2ncc3ccc4ncn(C(C)C)c4c3n2)ncc1N1C2CCC1CNC2` [Compound I-11], the results for the concentration for half-maximal inhibition (IC50) at CDK4/cyclin D1, at C-Klt and at CDK2/cyclin E were 98.3 nM, 29.8 nM and over 500 nM, respectively.

`COc1cc(Nc2ncc3ccc4ncn(C(C)C)c4c3n2)ncc1N1CC2CCC1CN2` (stereo not shown) [Compound I-12]: the half-maximal inhibitory concentration (IC50) against CDK4/cyclin D1 amounted to 66 nM; against C-Klt it was 15 nM; against CDK2/cyclin E, 301 nM.

`CC#CCOc1cc(Nc2ncc3ccc4ncn(C(C)C)c4c3n2)ncc1N1CCNCC1` [Compound I-13] registered a half-maximal inhibitory concentration (IC50) at CDK4/cyclin D1 of 109 nM.

As to `CC(C)n1cnc2ccc3cnc(Nc4cc(Oc5ccccc5)c(N5CCNCC5)cn4)nc3c21` [Compound I-14], the concentration for half-maximal inhibition (IC50) was found to be 46.1 nM against CDK4/cyclin D1, 70.9 nM at C-Klt and 436 nM on CDK2/cyclin E.

For the molecule `COc1cc(Nc2ncc3ccc4ncn(C(C)C)c4c3n2)ncc1NCC1COC(=O)N1C` (stereo not shown) [Compound I-15], the IC50 against CDK4/cyclin D1 is 267 nM; on C-Klt it was 118 nM; on CDK2/cyclin E it was over 500 nM.

On to `CCOc1cc(Nc2ncc3ccc4ncn(CC)c4c3n2)ncc1N1CCN(CC)CC1` [Compound V-1, N-(4-ethoxy-5-(4-ethylpiperazin-1-yl)pyridin-2-yl)-1-ethyl-1H-imidazo[4,5-h]quinazolin-8-amine], for which the IC50 on CDK4/cyclin D1 was 221 nM; on C-Klt, 21.3 nM.

`COc1cc(Nc2ncc3cc(C)c4ncn(C(C)C)c4c3n2)ccc1N1CCOCC1` [II-1, 1-isopropyl-N-(3-methoxy-4-morpholinophenyl)-4-methyl-1H-imidazo[4,5-h]quinazolin-8-amine] had an IC50 at C-Klt of 75.1 nM.

Turning to `CC(C)Oc1cc(Nc2ncc3ccc4ncn(C)c4c3n2)ncc1N1CCNCC1` [IV-1, N-(4-isopropoxy-5-(piperazin-1-yl)pyridin-2-yl)-1-methyl-1H-imidazo[4,5-h]quinazolin-8-amine], at C-Klt, the midpoint of inhibition, the IC50, lay at 137 nM.

Take `COc1cc(Nc2ncc3ccc4nc(C)n(C(C)C)c4c3n2)ncc1N1CCOCC1` [VI-1, 1-isopropyl-N-(4-methoxy-5-morpholinopyridin-2-yl)-2-methyl-1H-imidazo[4,5-h]quinazolin-8-amine]: the concentration for half-maximal inhibition (IC50) against CDK4/cyclin D1 came to 245 nM; at CDK1/cyclin B, 397 nM; against C-Klt it was 46 nM; at CDK2/cyclin E, 89.1 nM.
